Laboratory results: ChEMBL document CHEMBL1150689, “New dihydroalkylhexenones from Lannea edulis” (J Nat Prod, 2003)
Active and inactive are the calls of the source. The calls are words filed in the database; no cut-off is given here.

experiment: DPPH radical scavenging activity at 10 ug after 30 mins by TLC; type: functional

Row | SMILES | Activity
1 | CC/C=C/CCCCCCCCCCCCCCC[C@]1(O)CC(=O)C=C[C@@H]1O | inactive
2 | CC/C=C/CCCCCCCCCCCCCCC[C@@]1(O)CC(=O)C=C[C@@H]1O | inactive
3 | CC/C=C/CCCCCCCCCCCCCc1cccc(O)c1 | Active
4 | CC/C=C/CCCCCCCCCCCCC[C@@]1(O)CC(=O)C=C[C@@H]1O | inactive
